# In patent publication US9701681B2, “Fused ring heteroaryl compounds and their use as Trk inhibitors” (CMG Pharmaceutical Co., Ltd., priority 2014, dated 2017):
# Assays:
# TRK A, B & C kinase = biological target: T1, TRK A, B & C kinase; test: TRK A, B & C kinase assay (ADP-Glo / HTRF KinEASE-TK); format: biochemical; details: ADP-Glo or HTRF KinEASE-TK kit, isoform not specified, read-out: IC50 (nM) Enzymatic assay
# T1 construct: fused on or other part: Carna's Trk kinases are usually GST-tagged cytoplasmic domains
# Method: ADP-Glo assay kit was purchased from Promega. poly (Glu, Tyr), Magnesium sulfate, Bovine serum albumin (BSA) and dimethylsulfoxide(DMSO) were purchased from Sigma-Aldrich. Tris-HCl buffer was purchased from BD Gentest. HTRF KinEASE-TK kit was purchased from cisbio. TRK A, B & C kinase was purchased from Carna bioscience.
# Kinase assay was performed for Chemical Compounds 1-61 using two methods using luminescent ADP-Glo assay kit (Promega) and HTRF KinEASE-TK assay kit (cisbio). The luminescent ADP-Glo assay kit (Promega) measures ADP formed from a kinase reaction. ADP converted into ATP, which is then converted into light by Ultra-Glo luciferase. The HTRF KinEASE-TK assay kit (cisbio) measures tyrosine kinase activities using one substrate and a universal detection system.
# ADP-Glo Assay Kit (Promega)
# The protein kinase assay was performed for Chemical Compounds 1-61 at […] concentrations are 0.4 ng/ul of TrKA, 0.5 ng/ul of TrKB and 3 ng/ul of TrKC, respectively), 5 μL of 1 ug/ul stock solution of poly(glu, Tyr), 5 μL of compounds or assay buffer, 5 μL of ATP (125 μM stock solution).
# The assay was started by incubating the reaction mixture in a 96-well plate at 30° C. for 1 hr. After the incubation, the assay was terminated by the addition of 25 […] Detection Reagent was added, and the 96-well plate was shaken and then incubated for additional 30 min at ambient temperature. The 96-well reaction plate was then read on an Enspire plate reader. The IC50 values were derived through a curve fitting using SigmaPlot.
# HTRF KinEASE-TK Assay Kit (Cisbio)
# The HTRF KinEASE-TK assay was performed for Chemical Compounds 1-61 in 384-well low volume microplate (Greiner). The HTRF KinEASE-TK assay format involves the two steps. The first step is kinase reaction step. This kinase reaction step was performed at RT (room temperature) in final volume of 10 ul according to the following assay reaction recipe: 10 ul of kinase mixture (Kinase (2 ul)+ATP (2 ul)+Substrate (2 ul)+Compound (4 ul)). Kinase final concentrations were 0.3 ng/ul of TRKA, 0.1 ng/ul of TRKB, 0.03 ng/ul of TRKC, respectively. ATP final concentrations were 14.7 uM (TRKA), 4.77 uM (TRKB), 25.6 uM (TRKC) respectively. TK-substrate final concentration was 0.3 ng/ul. The mixtures exposed to Dose response concentration (DRC) compound from 0 to 100 nM for 40 min. During the kinase reaction step, the kinase reaction was started by the addition of ATP. Kinase phosphorylates the substrate.
# The second is detection step. 10 ul of detection reagents (5 ul Sa-XL 665 in EDTA+5 ul TK Antibody-Eu in EDTA) was added to kinase mixture. This step was performed at room temperature for 1 hr. The detection reagent detects phosphorylated substrates.
# Finally 384-well reaction plate was then read on FlexStation 3 machine. The fluorescence was measured at 620 nm (Cryptate) and 665 nm (XL665). A ratio is calculated ([…]/620)×10^4 for each well. The IC50 value was derived through a curve fitting using GraphPad Prism. Table 1 below includes the results of the assays.
# TF-1 cells = test: Cell proliferation assay (TF-1); details: 10 ng/ml human β-NGF, 72 hours exposure, read-out: IC50 (nM) Cell-based assay (TF-1)
# Method: (§1) Doxorubicin was purchased from Sigma Aldrich (D1515). All compounds were diluted in DMSO (Sigma Aldrich, D2650). AlamarBlue® cell viability reagent was purchased from Thermo Scientific (88952). CellTiter 96® AQueous One Solution Cell proliferation assay was purchased from Promega. KM12-luc cells were obtained from JCRB (National Institute of Health Sciences, Tokyo, Japan). They were maintained in DMEM medium (GIB-11965-118) supplemented with 10% fetal bovine serum (Gibco, 16000-044) and MEM Non-Essential Amino Acids Solution (Thermo Scientific, 11140-050). TF-1 cells were obtained from ATCC. They were maintained in RPMI medium (GIB-A10491) supplemented with 10% fetal bovine serum (Gibco, 16000-044), GM-CSF (Thermo Scientific, 11140-050), and β-NGF (R&D systems). Trypsin/EDTA was purchased from Gibco (GIB-25300-054, 0.05%). 96-well plates were purchased from Corning Inc.
# (§2) The proliferation assay was performed for Chemical Compounds 1-61 s in media supplemented with 10% FBS, using AlamarBlue® cell viability reagent or CellTiter 96® AQueous One Solution Cell proliferation assay kit. Cells were cultured in humidified 37° C. incubator with 5% CO2. To evaluate the antiproliferation activity of compounds, TF-1 cells were adjusted to GM-CSF free media (RPMI, 10% FBS, and 1% penicillin-streptomycin) for 16 hr and were seeded in 96-well plates at 30,000 cells/well with medium (RPMI, 10% FBS, 1% penicillin-streptomycin and 10 ng/ml human β-NGF). KM12-luc were seeded at 10,000 cells per well into 96-well plates. After overnight incubation, serial dilutions of compounds were added to triplicate wells, and cells were exposed for 72 hours. The final concentration of DMSO was adjusted to 0.5% in media. Quantitation of cell growth was assessed using two kinds of reagent. 20 ul of AlamarBlue® reagent in an amount equal to 10% of the culture volume was added to each well and were incubated in humidified 37° C. incubator with 5% CO2 for 2 hr. Otherwise, 20 ul of CellTiter 96® reagent was added to each well and were incubated in the same conditions as previously described. Data were plotted, and GI50 values were calculated using GraphPad software. Table 1 below includes the results of the assays.
# KM12-luc cells = test: Cell proliferation assay (KM12); details: 72 hours exposure, read-out: IC50 (nM) Cell-based assay (KM12)
# Method: as §1, §2
"IC50 (TRK A, B & C kinase) [nM]",Structure (SMILES),IC50 (TF-1 cells) [nM],IC50 (KM12-luc cells) [nM]
< 10,"O=C(/C=C/c1cnn2ccc(N3CCCC3c3cncc(F)c3)nc12)NC1CC1 (stereo not drawn) [Chemical Compound 39, (E)-N-cyclopropyl-3-(5-(2-(5-fluoropyridin-3-yl)pyrrolidin-1-yl)pyrazolo[1,5-a]pyrimidin-3-yl)acrylamide]",< 1000,< 1000
< 10,"CC(C)c1nnc(-c2cnn3ccc(N4CCC[C@@H]4c4cncc(F)c4)nc23)s1 [Chemical Compound 17, (R)-2-(5-(2-(5-fluoropyridin-3-yl)pyrrolidin-1-yl)pyrazolo[1,5-a]pyrimidin-3-yl)-5-isopropyl-1,3,4-thiadiazole]",< 10,< 10
< 10,"CCNC(=O)/C=C/c1cnn2ccc(N3CCCC3c3cncc(F)c3)nc12 (stereo not drawn) [Chemical Compound 38, (E)-N-ethyl-3-(5-(2-(5-fluoropyridin-3-yl)pyrrolidin-1-yl)pyrazolo[1,5-a]pyrimidin-3-yl)acrylamide]",< 1000,< 1000
< 100,"Cc1noc(C)c1-c1cnn2ccc(N3CCCC3c3cc(F)ccc3F)nc12 (stereo not drawn) [Chemical Compound 31, 4-(5-(2-(2,5-difluorophenyl)pyrrolidin-1-yl)pyrazolo[1,5-a]pyrimidin-3-yl)-3,5-dimethylisoxazole]",< 1000,< 1000
< 10,"CC(C)c1nnc(-c2cnn3ccc(N4CCCC4c4cc(F)ccc4F)nc23)o1 (stereo not drawn) [Chemical Compound 5, 2-(5-(2-(2,5-difluorophenyl)pyrrolidin-1-yl)pyrazolo[1,5-a]pyrimidin-3-yl)-5-isopropyl-1,3,4-oxadiazole]",< 10,< 10
< 10,"Fc1ccc(F)c(C2CCCN2c2ccn3ncc(-c4cnoc4)c3n2)c1 (stereo not drawn) [Chemical Compound 30, 4-(5-(2-(2,5-difluorophenyl)pyrrolidin-1-yl)pyrazolo[1,5-a]pyrimidin-3-yl)isoxazole]",< 100,< 100
< 10,"CCc1nnc(-c2cnn3ccc(N4CCCC4c4cncc(F)c4)nc23)s1 (stereo not drawn) [Chemical Compound 12, 2-ethyl-5-(5-(2-(5-fluoropyridin-3-yl)pyrrolidin-1-yl)pyrazolo[1,5-a]pyrimidin-3-yl)-1,3,4-thiadiazole]",< 100,< 100
< 10,"Fc1cncc(C2CCCN2c2ccn3ncc(-c4nnc(C5CC5)s4)c3n2)c1 (stereo not drawn) [Chemical Compound 14, 2-cyclopropyl-5-(5-(2-(5-fluoropyridin-3-yl)pyrrolidin-1-yl)pyrazolo[1,5-a]pyrimidin-3-yl)-1,3,4-thiadiazole]",< 100,< 100
< 10,"CN(C)C(=O)/C=C/c1cnn2ccc(N3CCCC3c3cc(F)ccc3F)nc12 (stereo not drawn) [Chemical Compound 45, (E)-3-(5-(2-(2,5-difluorophenyl)pyrrolidin-1-yl)pyrazolo[1,5-a]pyrimidin-3-yl)-N,N-dimethylacrylamide]",< 100,< 100
< 10,"COc1ncc(F)cc1C1CCCN1c1ccn2ncc(-c3nnc(C(C)(C)C)o3)c2n1 (stereo not drawn) [Chemical Compound 28, 2-tert-butyl-5-(5-(2-(5-fluoro-2-methoxypyridin-3-yl)pyrrolidin-1-yl)pyrazolo[1,5-a]pyrimidin-3-yl)-1,3,4-oxadiazole]",< 10,< 10
< 10,"Cc1nnc(-c2cnn3ccc(N4CCCC4c4cc(F)ccc4F)nc23)o1 (stereo not drawn) [Chemical Compound 1, 2-(5-(2-(2,5-difluorophenyl)pyrrolidin-1-yl)pyrazolo[1,5-a]pyrimidin-3-yl)-5-methyl-1,3,4-oxadiazole]",< 100,< 100
< 10,"CC(C)(C)c1nnc(-c2cnn3ccc(N4C[C@@H](F)C[C@@H]4c4cc(F)ccc4F)nc23)o1 [Chemical Compound 26, 2-tert-butyl-5-(5-((2R,4S)-2-(2,5-difluorophenyl)-4-fluoropyrrolidin-1-yl)pyrazolo[1,5-a]pyrimidin-3-yl)-1,3,4-oxadiazole]",< 10,< 10
< 10,"CC(C)(C)c1nnc(-c2cnn3ccc(N4CCCC4c4cncc(F)c4)nc23)s1 (stereo not drawn) [Chemical Compound 15, 2-tert-butyl-5-(5-(2-(5-fluoropyridin-3-yl)pyrrolidin-1-yl)pyrazolo[1,5-a]pyrimidin-3-yl)-1,3,4-thiadiazole]",< 100,< 100
< 10,"Cc1nnc(-c2cnn3ccc(N4CCCC4c4cc(F)ccc4F)nc23)[nH]1 (stereo not drawn) [Chemical Compound 32, 5-(2-(2,5-difluorophenyl)pyrrolidin-1-yl)-3-(5-methyl-1H-1,2,4-triazol-3-yl)pyrazolo[1,5-a]pyrimidine]",< 100,< 100
< 10,"O=C(C#Cc1cnn2ccc(N3CCCC3c3cc(F)ccc3F)nc12)N1CCOCC1 (stereo not drawn) [Chemical Compound 61, 3-(5-(2-(2,5-difluorophenyl)pyrrolidin-1-yl)pyrazolo[1,5-a]pyrimidin-3-yl)-1-morpholinoprop-2-yn-1-one]",< 100,< 100
< 10,"CCNC(=O)/C=C/c1cnn2ccc(N3CCCC3c3cc(F)ccc3F)nc12 (stereo not drawn) [Chemical Compound 41, (E)-3-(5-(2-(2,5-difluorophenyl)pyrrolidin-1-yl)pyrazolo[1,5-a]pyrimidin-3-yl)-N-ethylacrylamide]",< 100,< 100
< 10,"CN(C)C(=O)/C=C/c1cnn2ccc(N3CCCC3c3cncc(F)c3)nc12 (stereo not drawn) [Chemical Compound 40, (E)-3-(5-(2-(5-fluoropyridin-3-yl)pyrrolidin-1-yl)pyrazolo[1,5-a]pyrimidin-3-yl)-N,N-dimethylacryl-amide]",< 100,< 1000
